From patent publication US20020010210A1, “PHARMACEUTICAL PREPARATION AND METHOD FOR TREATING CANCER” (priority 1997, published 2002)
Where a name gives a salt, the structure may show the parent alone. Ends that are not written are not given here.

What was measured:
Type in all cases: in vivo
[1] = system: spontaneous breast cancer rat cells (SST-2); experiment: Lung metastasis of implanted SST-2 cells in SHR rats (Example 3); conditions: 35 days after implantation; for Number of Metastasis Colonies (average), Peroral Administration: 1 mg/rat perorally from day of implantation to day 34; for Number of Metastasis Colonies (average), Subcutaneous Injection: 1 mg/rat subcutaneous injection from day of implantation to day 34
Experimental: 1×100,000 spontaneous breast cancer rat cells (SST-2) were subcutaneously implanted into the back of a rat (SHR rat) (5 rats per group) suffering from spontaneous hypertension. After 35 days, the rats were sacrificed, and the lung weight and the number of colonies formed were measured to examine the degree of metastasis of SST-2 to the lung. The compounds shown in Tables 3 and 4 each was administered perorally or through subcutaneous injection in a dose of 1 mg/rat over the period from the day of implantation to 34 days after implantation. The number of colonies formed was compared with that in the control group not subjected to any treatment, to examine metastasis to the lung.

[2] = system: spontaneous breast cancer rat cells (SST-2); experiment: Lung metastasis of SST-2 in SHR rats, ascorbic acid derivative combined with known anticancer agent (Example 4)
Experimental: 1×100,000 spontaneous breast cancer rat cells (SST-2) were subcutaneously implanted into the back of a rat (SHR rat) (5 rats per group) suffering from spontaneous hypertension. After 35 days, the rats were sacrificed, and the number of colonies formed were measured to examine the degree of metastasis of SST-2 to the lung.
The ascorbic acid derivatives used were L-ascorbic acid-2-phosphate-6-palmitate, L-ascorbic acid-6-benzoate (reference compound) and magnesium L-ascorbic acid-2-phosphate.
Each of the groups treated with an ascorbic acid derivative was subjected to a test of administering the ascorbic acid derivative alone and to a test of administering the ascorbic acid derivative in combination with a known anticancer agent as shown in Table 4. Furthermore, tests of administering the anticancer agents alone were conducted. Over the period of from 7 days prior to implantation to 34 days after the implantation, the ascorbic acid derivative was injected through a vein in the tail region at a dose of 1 mg/1 day/rat. Each of the known anticancer agents was perorally administered in a minimum dose by reference to the concentration for a single use case described in the publication, Tyakuhin Yoran (Medical Product Handbook), 4th Edition, pp. 1474-1509, Yakugyo Jiho-Sha (1989), and the number of colonies formed after metastasis was compared.

[3] = system: spontaneous breast cancer rat cells (SST-2); experiment: as above; remark: listed apart in the source
[4] = ascorbic acid derivative 1 mg/1 day/rat tail vein, day -7 to day 34, known anticancer agent perorally in minimum dose, colonies after 35 days

CC(C)(C)C(=O)OC[C@H](O)[C@H]1OC(=O)C(O)=C1OP(=O)(O)O [6-O-Pivaloyl-L-ascorbic acid-3-phosphate]
Number of Metastasis Colonies (average), Peroral Administration [1]: 89.6
Number of Metastasis Colonies (average), Subcutaneous Injection [1]: 86.2

CCCCCCCCCCCCCCCC(=O)OC[C@H](O)[C@H]1OC(=O)C(OC(=O)CCCCCCCCCCCCCCC)=C1O [L-Ascorbic acid-2,6-dipalmitate]
Number of Metastasis Colonies (average), Peroral Administration [1]: 89.8
Number of Metastasis Colonies (average), Subcutaneous Injection [1]: 86.6

C[C@]12C[C@H]3S[C@H]3C[C@@H]1CC[C@@H]1[C@@H]2CC[C@]2(C)[C@@H](O)CC[C@@H]12 [epitiostanol]
Cancer metastasis inhibitory effect of combination with L-Ascorbic Acid-2-Phosphate-6-Palmitate versus each agent alone ([2]; rat, in vivo): +
Cancer metastasis inhibitory effect of combination with L-Ascorbic Acid-2-Phosphate-6-Benzoate versus each agent alone ([3]; rat, in vivo): +
Cancer metastasis inhibitory effect of combination with L-Ascorbic Acid-6-Palmitate versus each agent alone ([3]; rat, in vivo): −

O=c1[nH]c(=O)n([C@H]2C[C@H](O)[C@@H](CO)O2)cc1F [floxuridine]
Cancer metastasis inhibitory effect of combination with L-Ascorbic Acid-2-Phosphate-6-Palmitate versus each agent alone [2, 4]: +
Cancer metastasis inhibitory effect of combination with L-Ascorbic Acid-2-Phosphate-6-Benzoate versus each agent alone [3, 4]: +
Cancer metastasis inhibitory effect of combination with L-Ascorbic Acid-6-Palmitate versus each agent alone [3, 4]: −

O=c1[nH]cc(F)c(=O)[nH]1 [fluorouracil]
Cancer metastasis inhibitory effect of combination with L-Ascorbic Acid-2-Phosphate-6-Palmitate versus each agent alone [2, 4]: +
Cancer metastasis inhibitory effect of combination with L-Ascorbic Acid-2-Phosphate-6-Benzoate versus each agent alone [3, 4]: +
Cancer metastasis inhibitory effect of combination with L-Ascorbic Acid-6-Palmitate versus each agent alone [3, 4]: −

O=P1(NCCCl)OCCCN1CCCl (stereo not shown) [ifosfamide]
Cancer metastasis inhibitory effect of combination with L-Ascorbic Acid-2-Phosphate-6-Palmitate versus each agent alone ([2]; rat, in vivo): +
Cancer metastasis inhibitory effect of combination with L-Ascorbic Acid-2-Phosphate-6-Benzoate versus each agent alone ([3]; rat, in vivo): +
Cancer metastasis inhibitory effect of combination with L-Ascorbic Acid-6-Palmitate versus each agent alone ([3]; rat, in vivo): −

COC1(O[C@H]2CC[C@H]3[C@@H]4CC[C@H]5C[C@@H]6S[C@@H]6C[C@]5(C)[C@H]4CC[C@]23C)CCCC1 [mebitiostan]
Cancer metastasis inhibitory effect of combination with L-Ascorbic Acid-2-Phosphate-6-Palmitate versus each agent alone [2, 4]: +
Cancer metastasis inhibitory effect of combination with L-Ascorbic Acid-2-Phosphate-6-Benzoate versus each agent alone [3, 4]: +
Cancer metastasis inhibitory effect of combination with L-Ascorbic Acid-6-Palmitate versus each agent alone [3, 4]: −

S=c1nc[nH]c2nc[nH]c12 [meercaptopurine]
Cancer metastasis inhibitory effect of combination with L-Ascorbic Acid-2-Phosphate-6-Palmitate versus each agent alone ([2]; rat, in vivo): +
Cancer metastasis inhibitory effect of combination with L-Ascorbic Acid-2-Phosphate-6-Benzoate versus each agent alone ([3]; rat, in vivo): +
Cancer metastasis inhibitory effect of combination with L-Ascorbic Acid-6-Palmitate versus each agent alone ([3]; rat, in vivo): −

NC(Cc1ccc(N(CCCl)CCCl)cc1)C(=O)O (stereo not shown) [merphalan]
Cancer metastasis inhibitory effect of combination with L-Ascorbic Acid-2-Phosphate-6-Palmitate versus each agent alone [2, 4]: +
Cancer metastasis inhibitory effect of combination with L-Ascorbic Acid-2-Phosphate-6-Benzoate versus each agent alone [3, 4]: +
Cancer metastasis inhibitory effect of combination with L-Ascorbic Acid-6-Palmitate versus each agent alone [3, 4]: −

CN(Cc1cnc2nc(N)nc(N)c2n1)c1ccc(C(=O)N[C@@H](CCC(=O)O)C(=O)O)cc1 [methotrexate]
Cancer metastasis inhibitory effect of combination with L-Ascorbic Acid-2-Phosphate-6-Palmitate versus each agent alone [2, 4]: +
Cancer metastasis inhibitory effect of combination with L-Ascorbic Acid-2-Phosphate-6-Benzoate versus each agent alone [3, 4]: +
Cancer metastasis inhibitory effect of combination with L-Ascorbic Acid-6-Palmitate versus each agent alone [3, 4]: −

CO[C@@]12[C@H](COC(N)=O)C3=C(C(=O)C(C)=C(N)C3=O)N1C[C@@H]1N[C@@H]12 [mitomycin C]
Cancer metastasis inhibitory effect of combination with L-Ascorbic Acid-2-Phosphate-6-Palmitate versus each agent alone ([2]; rat, in vivo): +
Cancer metastasis inhibitory effect of combination with L-Ascorbic Acid-2-Phosphate-6-Benzoate versus each agent alone ([3]; rat, in vivo): +
Cancer metastasis inhibitory effect of combination with L-Ascorbic Acid-6-Palmitate versus each agent alone ([3]; rat, in vivo): −

Cc1ncc(CNC(=O)N(CCCl)N=O)c(N)n1 [nimustine hydrochloride]
Cancer metastasis inhibitory effect of combination with L-Ascorbic Acid-2-Phosphate-6-Palmitate versus each agent alone ([2]; rat, in vivo): +
Cancer metastasis inhibitory effect of combination with L-Ascorbic Acid-2-Phosphate-6-Benzoate versus each agent alone ([3]; rat, in vivo): +
Cancer metastasis inhibitory effect of combination with L-Ascorbic Acid-6-Palmitate versus each agent alone ([3]; rat, in vivo): −

CNNCc1ccc(C(=O)NC(C)C)cc1 [procarbazine hydrochloride]
Cancer metastasis inhibitory effect of combination with L-Ascorbic Acid-2-Phosphate-6-Palmitate versus each agent alone [2, 4]: +
Cancer metastasis inhibitory effect of combination with L-Ascorbic Acid-2-Phosphate-6-Benzoate versus each agent alone [3, 4]: +
Cancer metastasis inhibitory effect of combination with L-Ascorbic Acid-6-Palmitate versus each agent alone [3, 4]: −

CC/C(=C(\c1ccccc1)c1ccc(OCCN(C)C)cc1)c1ccccc1 [tamoxifen citrate]
Cancer metastasis inhibitory effect of combination with L-Ascorbic Acid-2-Phosphate-6-Palmitate versus each agent alone [2, 4]: +
Cancer metastasis inhibitory effect of combination with L-Ascorbic Acid-2-Phosphate-6-Benzoate versus each agent alone [3, 4]: +
Cancer metastasis inhibitory effect of combination with L-Ascorbic Acid-6-Palmitate versus each agent alone [3, 4]: −

O=c1[nH]c(=O)n(C2CCCO2)cc1F (stereo not shown) [tegaful]
Cancer metastasis inhibitory effect of combination with L-Ascorbic Acid-2-Phosphate-6-Palmitate versus each agent alone ([2]; rat, in vivo): +
Cancer metastasis inhibitory effect of combination with L-Ascorbic Acid-2-Phosphate-6-Benzoate versus each agent alone ([3]; rat, in vivo): +
Cancer metastasis inhibitory effect of combination with L-Ascorbic Acid-6-Palmitate versus each agent alone ([3]; rat, in vivo): −

OC[C@H]1O[C@@H](n2cnc3c(S)ncnc32)[C@H](O)[C@@H]1O [thioinosine]
Cancer metastasis inhibitory effect of combination with L-Ascorbic Acid-2-Phosphate-6-Palmitate versus each agent alone [2, 4]: +
Cancer metastasis inhibitory effect of combination with L-Ascorbic Acid-2-Phosphate-6-Benzoate versus each agent alone [3, 4]: +
Cancer metastasis inhibitory effect of combination with L-Ascorbic Acid-6-Palmitate versus each agent alone [3, 4]: −

CC[C@]1(O)C[C@@H]2CN(CCc3c([nH]c4ccccc34)[C@@](C(=O)OC)(c3cc4c(cc3OC)N(C)[C@H]3[C@@](O)(C(=O)OC)[C@H](OC(C)=O)[C@]5(CC)C=CCN6CC[C@]43[C@@H]65)C2)C1 [vinblastine sulfate]
Cancer metastasis inhibitory effect of combination with L-Ascorbic Acid-2-Phosphate-6-Palmitate versus each agent alone [2, 4]: +
Cancer metastasis inhibitory effect of combination with L-Ascorbic Acid-2-Phosphate-6-Benzoate versus each agent alone [3, 4]: +
Cancer metastasis inhibitory effect of combination with L-Ascorbic Acid-6-Palmitate versus each agent alone [3, 4]: −

CC[C@]1(O)C[C@H]2CN(CCc3c([nH]c4ccccc34)[C@@](C(=O)OC)(c3cc4c(cc3OC)N(C=O)[C@H]3[C@@](O)(C(=O)OC)[C@H](OC(C)=O)[C@]5(CC)C=CCN6CC[C@]43[C@@H]65)C2)C1 [vincristine sulfate]
Cancer metastasis inhibitory effect of combination with L-Ascorbic Acid-2-Phosphate-6-Palmitate versus each agent alone [2, 4]: +
Cancer metastasis inhibitory effect of combination with L-Ascorbic Acid-2-Phosphate-6-Benzoate versus each agent alone [3, 4]: +
Cancer metastasis inhibitory effect of combination with L-Ascorbic Acid-6-Palmitate versus each agent alone [3, 4]: −

CC[C@]1(O)C[C@@H]2CN(CCc3c([nH]c4ccccc34)[C@@](C(=O)OC)(c3cc4c(cc3OC)N(C)[C@H]3[C@@](O)(C(N)=O)[C@H](O)[C@]5(CC)C=CCN6CC[C@]43[C@@H]65)C2)C1 [vindesine sulfate]
Cancer metastasis inhibitory effect of combination with L-Ascorbic Acid-2-Phosphate-6-Palmitate versus each agent alone [2, 4]: +
Cancer metastasis inhibitory effect of combination with L-Ascorbic Acid-2-Phosphate-6-Benzoate versus each agent alone [3, 4]: +
Cancer metastasis inhibitory effect of combination with L-Ascorbic Acid-6-Palmitate versus each agent alone [3, 4]: −

CDPGYIGSR-NH2 [CDPGYGSR-NH2]
Cancer metastasis inhibitory effect of combination with L-Ascorbic Acid-2-Phosphate-6-Palmitate versus each agent alone ([2]; rat, in vivo): +
Cancer metastasis inhibitory effect of combination with L-Ascorbic Acid-2-Phosphate-6-Benzoate versus each agent alone ([3]; rat, in vivo): +
Cancer metastasis inhibitory effect of combination with L-Ascorbic Acid-6-Palmitate versus each agent alone ([3]; rat, in vivo): −

CIZOFERAN
Cancer metastasis inhibitory effect of combination with L-Ascorbic Acid-2-Phosphate-6-Palmitate versus each agent alone [2, 4]: +
Cancer metastasis inhibitory effect of combination with L-Ascorbic Acid-2-Phosphate-6-Benzoate versus each agent alone [3, 4]: +
Cancer metastasis inhibitory effect of combination with L-Ascorbic Acid-6-Palmitate versus each agent alone [3, 4]: −

L-asparginase
Cancer metastasis inhibitory effect of combination with L-Ascorbic Acid-2-Phosphate-6-Palmitate versus each agent alone ([2]; rat, in vivo): +
Cancer metastasis inhibitory effect of combination with L-Ascorbic Acid-2-Phosphate-6-Benzoate versus each agent alone ([3]; rat, in vivo): +
Cancer metastasis inhibitory effect of combination with L-Ascorbic Acid-6-Palmitate versus each agent alone ([3]; rat, in vivo): −

PLEOMYCIN sulfate
Cancer metastasis inhibitory effect of combination with L-Ascorbic Acid-2-Phosphate-6-Palmitate versus each agent alone ([2]; rat, in vivo): +
Cancer metastasis inhibitory effect of combination with L-Ascorbic Acid-2-Phosphate-6-Benzoate versus each agent alone ([3]; rat, in vivo): +
Cancer metastasis inhibitory effect of combination with L-Ascorbic Acid-6-Palmitate versus each agent alone ([3]; rat, in vivo): −

Platelet Factor-4
Cancer metastasis inhibitory effect of combination with L-Ascorbic Acid-2-Phosphate-6-Palmitate versus each agent alone ([2]; rat, in vivo): +
Cancer metastasis inhibitory effect of combination with L-Ascorbic Acid-2-Phosphate-6-Benzoate versus each agent alone ([3]; rat, in vivo): +
Cancer metastasis inhibitory effect of combination with L-Ascorbic Acid-6-Palmitate versus each agent alone ([3]; rat, in vivo): −

lentinan
Cancer metastasis inhibitory effect of combination with L-Ascorbic Acid-2-Phosphate-6-Palmitate versus each agent alone [2, 4]: +
Cancer metastasis inhibitory effect of combination with L-Ascorbic Acid-2-Phosphate-6-Benzoate versus each agent alone [3, 4]: +
Cancer metastasis inhibitory effect of combination with L-Ascorbic Acid-6-Palmitate versus each agent alone [3, 4]: −

neocarzinostatin
Cancer metastasis inhibitory effect of combination with L-Ascorbic Acid-2-Phosphate-6-Palmitate versus each agent alone [2, 4]: +
Cancer metastasis inhibitory effect of combination with L-Ascorbic Acid-2-Phosphate-6-Benzoate versus each agent alone [3, 4]: +
Cancer metastasis inhibitory effect of combination with L-Ascorbic Acid-6-Palmitate versus each agent alone [3, 4]: −

peptidoglycan
Cancer metastasis inhibitory effect of combination with L-Ascorbic Acid-2-Phosphate-6-Palmitate versus each agent alone [2, 4]: +
Cancer metastasis inhibitory effect of combination with L-Ascorbic Acid-2-Phosphate-6-Benzoate versus each agent alone [3, 4]: +
Cancer metastasis inhibitory effect of combination with L-Ascorbic Acid-6-Palmitate versus each agent alone [3, 4]: −

pleomycin hydrochloride
Cancer metastasis inhibitory effect of combination with L-Ascorbic Acid-2-Phosphate-6-Palmitate versus each agent alone ([2]; rat, in vivo): +
Cancer metastasis inhibitory effect of combination with L-Ascorbic Acid-2-Phosphate-6-Benzoate versus each agent alone ([3]; rat, in vivo): +
Cancer metastasis inhibitory effect of combination with L-Ascorbic Acid-6-Palmitate versus each agent alone ([3]; rat, in vivo): −

protamine
Cancer metastasis inhibitory effect of combination with L-Ascorbic Acid-2-Phosphate-6-Palmitate versus each agent alone ([2]; rat, in vivo): +
Cancer metastasis inhibitory effect of combination with L-Ascorbic Acid-2-Phosphate-6-Benzoate versus each agent alone ([3]; rat, in vivo): +
Cancer metastasis inhibitory effect of combination with L-Ascorbic Acid-6-Palmitate versus each agent alone ([3]; rat, in vivo): −

vebromycin sulfate
Cancer metastasis inhibitory effect of combination with L-Ascorbic Acid-2-Phosphate-6-Palmitate versus each agent alone ([2]; rat, in vivo): +
Cancer metastasis inhibitory effect of combination with L-Ascorbic Acid-2-Phosphate-6-Benzoate versus each agent alone ([3]; rat, in vivo): +
Cancer metastasis inhibitory effect of combination with L-Ascorbic Acid-6-Palmitate versus each agent alone ([3]; rat, in vivo): −
